Each structure is given as a SMILES string. In brackets after ≈: the same amount, converted by molar mass.

The target in series [1] is Potassium voltage-gated channel subfamily A member 5 (Homo sapiens, UniProt P22460). Description: Inhibition of human Kv1.5 ion channel expressed in CHO K1 cells. In kind it is cell-based.
In the next series the test system is Rattus norvegicus. Description: Dose normalised AUC in rat at 10 mg/kg, po. The class given is ADME, organism-based. Set-up: dose 10 mg/kg, route oral. The settings on record: in vivo.
The nature of series [2]: Aqueous solubility of compound by chemiluminescent nitrogen detection analysis. The class given is physicochemical.
Series [3] can be described thus: Cmax in rat at 10 mg/kg, po. On the set-up: dose 10 mg/kg, route oral. The class given is ADME, organism-based. The note with it: in vivo.
The target of series [4] is Potassium voltage-gated channel subfamily A member 3 (Homo sapiens, UniProt P22001). Briefly: Inhibition of human Kv1.3 ion channel expressed in CGE22 cells. In kind it is cell-based.
Sequence of Potassium voltage-gated channel subfamily A member 3 (P22001 whole entry): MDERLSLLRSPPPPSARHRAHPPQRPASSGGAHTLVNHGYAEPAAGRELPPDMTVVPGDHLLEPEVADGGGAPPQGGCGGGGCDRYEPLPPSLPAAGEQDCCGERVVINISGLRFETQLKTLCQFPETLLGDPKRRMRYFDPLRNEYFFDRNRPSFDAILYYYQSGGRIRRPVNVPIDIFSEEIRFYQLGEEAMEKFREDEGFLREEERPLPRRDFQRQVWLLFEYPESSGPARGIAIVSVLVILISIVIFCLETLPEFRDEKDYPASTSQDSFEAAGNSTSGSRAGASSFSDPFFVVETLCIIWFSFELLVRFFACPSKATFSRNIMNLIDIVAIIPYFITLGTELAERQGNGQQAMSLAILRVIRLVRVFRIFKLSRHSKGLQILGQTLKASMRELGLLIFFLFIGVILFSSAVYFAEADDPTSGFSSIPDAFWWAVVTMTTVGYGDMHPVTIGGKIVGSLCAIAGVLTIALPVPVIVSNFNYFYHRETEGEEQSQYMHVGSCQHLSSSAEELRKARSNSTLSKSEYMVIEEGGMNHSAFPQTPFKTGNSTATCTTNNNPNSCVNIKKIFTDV
Series [5] can be described thus: Half life in rat liver microsome. In kind it is ADME. The settings on record: liver microsomes.

Sequence of Potassium voltage-gated channel subfamily A member 5 (P22460 whole entry): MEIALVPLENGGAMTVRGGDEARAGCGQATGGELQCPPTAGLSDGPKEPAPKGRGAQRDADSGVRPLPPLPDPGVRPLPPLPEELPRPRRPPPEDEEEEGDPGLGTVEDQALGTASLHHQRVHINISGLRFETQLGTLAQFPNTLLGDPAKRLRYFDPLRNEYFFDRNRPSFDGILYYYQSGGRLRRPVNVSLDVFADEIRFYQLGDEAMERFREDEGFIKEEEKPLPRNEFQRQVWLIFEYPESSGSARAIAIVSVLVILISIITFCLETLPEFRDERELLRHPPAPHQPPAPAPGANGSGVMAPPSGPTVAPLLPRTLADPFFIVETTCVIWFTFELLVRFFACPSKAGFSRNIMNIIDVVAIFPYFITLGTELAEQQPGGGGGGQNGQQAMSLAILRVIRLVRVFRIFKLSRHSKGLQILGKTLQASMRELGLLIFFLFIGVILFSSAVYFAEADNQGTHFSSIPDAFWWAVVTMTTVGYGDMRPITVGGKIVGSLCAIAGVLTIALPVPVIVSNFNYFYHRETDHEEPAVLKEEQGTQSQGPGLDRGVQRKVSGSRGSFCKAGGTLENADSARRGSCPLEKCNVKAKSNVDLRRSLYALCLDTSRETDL

For `CC(C)(CNC(=O)C(C)(O)C(F)(F)F)CN(C1=NS(=O)(=O)c2cc(F)ccc21)c1ccccc1` (configuration not stated), the figures for the IC50 in series [1] and in series [4] were 480 nM and 250 nM, respectively. In addition, the AUC with Rattus norvegicus was 1630 ng·kg·h/mg/mL. In addition, in series [2], the solubility (as a rule, the dissolved amount per volume that the medium holds) was 52 µM (≈ 26.1 µg/mL). Also, in series [3], the Cmax (commonly the highest concentration seen after dosing) amounted to 2100 ng/mL.

In the case of `CC(C)(CNC(=O)c1ccc(F)cc1)CN(C1=NS(=O)(=O)c2ccccc21)c1ccccc1`, in series [4], 160 nM corresponded to half-maximal inhibition (IC50). The half-life – broadly, the time in which the quantity being followed falls by half – in series [5] is under 15 min.

With `CC(C)(CNC(=O)c1ccco1)CN(C1=NS(=O)(=O)c2cc(F)ccc21)c1ccccc1`, the IC50 (usually the concentration needed to halve the response being measured) in series [1] was found to be 410 nM; in series [4], 200 nM.

For `CC(C)(CNC(=O)c1cc[nH]c1)CN(C1=NS(=O)(=O)c2cc(F)ccc21)c1ccccc1`, the IC50 in series [1] turned out to be 1320 nM; in series [4], 1150 nM.

On to `CC(C)(CNC(=O)CC1CCCCO1)CN(C1=NS(=O)(=O)c2cc(F)ccc21)c1ccccc1` (configuration not stated), for which the IC50 in series [1] was 780 nM; in series [4], 1350 nM.

As to `CC(C)(CNC(=O)C1(O)CCOCC1)CN(C1=NS(=O)(=O)c2cc(F)ccc21)c1ccccc1`, the IC50 in series [1] worked out at 1980 nM; in series [4] it was 1070 nM.

Regarding `Cn1cnc(C(=O)NCC(C)(C)CN(C2=NS(=O)(=O)c3cc(F)ccc32)c2ccccc2)c1`, the IC50 in series [1] is 13900 nM; in series [4], 13100 nM.

As to `CC(C)(CNC(=O)C1CCCCN1)CN(C1=NS(=O)(=O)c2cc(F)ccc21)c1ccccc1` (configuration not stated), the values for the IC50 in series [1] and in series [4] were 5970 nM and 5900 nM, respectively.

`CC(C)(CNC(=O)c1cccnc1O)CN(C1=NS(=O)(=O)c2cc(F)ccc21)c1ccccc1`: the values for the IC50 in series [1] and in series [4] were 9060 nM and 10100 nM, respectively.

`CC(C)(CNC(=O)C1CCOCC1)CN(C1=NS(=O)(=O)c2cc(F)ccc21)c1ccccc1` came in with an IC50 in series [4] of 530 nM. The half-life in series [5] was 26 min.

`Cn1ccnc1C(=O)NCC(C)(C)CN(C1=NS(=O)(=O)c2cc(F)ccc21)c1ccccc1`: the 50% inhibitory concentration (IC50) in series [1] turned out to be 520 nM; in series [4] it was 550 nM.

Take `CC(C)(CNC(=O)c1cccc(C(F)(F)F)c1)CN(C1=NS(=O)(=O)c2ccccc21)c1ccccc1`: 560 nM corresponded to half-maximal inhibition in series [4] (IC50). The half-life in series [5] is under 15 min.

As for `CC(C)(CNC(=O)C1(O)CCCCC1)CN(C1=NS(=O)(=O)c2cc(F)ccc21)c1ccccc1`, the results for the IC50 in series [1] and in series [4] were 450 nM and 350 nM, respectively.

As for `CC(C)(CNC(=O)N1CCOCC1)CN(C1=NS(=O)(=O)c2ccccc21)c1ccccc1`, in series [4], the IC50 is 470 nM. Moreover, the half-life in series [5] is 30 min.

As to `CC(C)(CNC(=O)C1CCCCO1)CN(C1=NS(=O)(=O)c2cc(F)ccc21)c1ccccc1` (configuration not stated), the 50% inhibitory concentration (IC50) amounted to 440 nM in series [1] and 640 nM in series [4].

For `CC(C)(CNC(=O)C1CC1)CN(C1=NS(=O)(=O)c2cc(F)ccc21)c1ccccc1`, the IC50 in series [1] was 490 nM; in series [4], 280 nM.

As to `CC(C)(CNC(=O)C1CC1(F)F)CN(C1=NS(=O)(=O)c2cc(F)ccc21)c1ccccc1` (configuration not stated), the results for the IC50 in series [1] and in series [4] were 320 nM and 140 nM, respectively.

Turning to `CNC(=O)NCC(C)(C)CN(C1=NS(=O)(=O)c2cc(F)ccc21)c1ccccc1`, the IC50 in series [1] was determined as 2220 nM; in series [4], 3080 nM.

In series [1], `O=c1ccc2c(OCCCCOc3ccccc3)c3ccoc3cc2o1` came in with an IC50 of 3450 nM. This lies in the single-digit micromolar range.

Consider `CN1CCCC1C(=O)NCC(C)(C)CN(C1=NS(=O)(=O)c2cc(F)ccc21)c1ccccc1` (configuration not stated), for which the IC50 in series [1] worked out at 1390 nM; in series [4] it was 2560 nM.

With `CC(C)(CNC(=O)C1(N)CCCC1)CN(C1=NS(=O)(=O)c2cc(F)ccc21)c1ccccc1`, the IC50 turned out to be 2640 nM in series [1] and 1510 nM in series [4].

Regarding `CC(C)(CNC(=O)C1(N)CC1)CN(C1=NS(=O)(=O)c2cc(F)ccc21)c1ccccc1`, the IC50 in series [1] came out at 790 nM; in series [4] it was 530 nM.

Consider `CC(C)(CNC(=O)N1CCCC1)CN(C1=NS(=O)(=O)c2cc(F)ccc21)c1ccccc1`, for which the IC50 in series [1] amounted to 340 nM; in series [4], 300 nM.

On to `CC(C)(CNC(=O)C1CCCO1)CN(C1=NS(=O)(=O)c2cc(F)ccc21)c1ccccc1` (configuration not stated), for which the figures for the IC50 in series [1] and in series [4] were 830 nM and 360 nM, respectively.

Consider `CN1CCC(C(=O)NCC(C)(C)CN(C2=NS(=O)(=O)c3cc(F)ccc32)c2ccccc2)CC1`, for which the IC50 in series [1] and in series [4] was over 50000 nM throughout.

In the case of `CC(C)(CNC(=O)c1cnccn1)CN(C1=NS(=O)(=O)c2cc(F)ccc21)c1ccccc1`, the IC50 in series [1] is 350 nM; in series [4], 230 nM.

For the compound `CN1CCCC(C(=O)NCC(C)(C)CN(C2=NS(=O)(=O)c3cc(F)ccc32)c2ccccc2)C1` (configuration not stated), the half-maximal inhibitory concentration (IC50) was 13700 nM in series [1] and 12000 nM in series [4].

Regarding `CC(C)(CNC(=O)N1CCOCC1)CN(C1=NS(=O)(=O)c2cc(F)ccc21)c1ccccc1`, in series [4], the IC50 worked out at 340 nM. For the same compound, in series [5], the half-life amounted to 60 min.

For the compound `CC(C)(CNC(=O)C1(C(F)(F)F)CC1)CN(C1=NS(=O)(=O)c2cc(F)ccc21)c1ccccc1`, the figures for the IC50 in series [1] and in series [4] were 240 nM and 80 nM, respectively.

As for `CC(C)(CNC(=O)CC(F)(F)F)CN(C1=NS(=O)(=O)c2cc(F)ccc21)c1ccccc1`, the results for the IC50 in series [1] and in series [4] were 270 nM and 150 nM, respectively.

Turning to `CC(C)(CNC(=O)C1CCOCC1)CN(C1=NS(=O)(=O)c2ccccc21)c1ccccc1`, inhibition in series [4] was half-maximal at 700 nM (IC50). Also, the half-life in series [5] is 32 min.

As to `CC(C)(CNC(=O)C1CCCNC1)CN(C1=NS(=O)(=O)c2cc(F)ccc21)c1ccccc1` (configuration not stated), the IC50 in series [1] and in series [4] was over 50000 nM each time.

On to `CC(C)(CNC(=O)c1ccncc1O)CN(C1=NS(=O)(=O)c2cc(F)ccc21)c1ccccc1`, for which the IC50 in series [1] and in series [4] was over 50000 nM throughout.

With `CN1CCCCC1C(=O)NCC(C)(C)CN(C1=NS(=O)(=O)c2cc(F)ccc21)c1ccccc1` (configuration not stated), the IC50 turned out to be 2880 nM in series [1] and 3400 nM in series [4].

On to `CC(C)(CNC(=O)c1cscn1)CN(C1=NS(=O)(=O)c2cc(F)ccc21)c1ccccc1`, for which the IC50 in series [1] was 290 nM; in series [4] it was 540 nM.

`CC(C)(CNC(=O)C1(O)CCCC1)CN(C1=NS(=O)(=O)c2cc(F)ccc21)c1ccccc1`: the IC50 in series [1] was found to be 730 nM; in series [4], 470 nM.

As to `CC(C)(CNC(=O)c1cocn1)CN(C1=NS(=O)(=O)c2cc(F)ccc21)c1ccccc1`, the IC50 in series [1] was 900 nM; in series [4] it was 750 nM.

As for `CC(C)(CNC(=O)c1ncccc1O)CN(C1=NS(=O)(=O)c2cc(F)ccc21)c1ccccc1`, the IC50 worked out at 460 nM in series [1] and 320 nM in series [4].

In series [4], `CC(C)(CNC(=O)c1cccc(C(F)(F)F)c1)CN(C1=NS(=O)(=O)c2cc(F)ccc21)c1ccccc1` yielded an IC50 of 700 nM. The compound also showed a half-life in series [5] of 39 min.

As to `O=C(NCCCN(C1=NS(=O)(=O)c2ccccc21)c1ccccc1)c1ccc(F)cc1`, the half-life in series [5] is under 15 min.

With `CC(C)(CNC(=O)C1CCOCC1(C)C)CN(C1=NS(=O)(=O)c2cc(F)ccc21)c1ccccc1` (configuration not stated), the results for the IC50 in series [1] and in series [4] were 960 nM and 840 nM, respectively.

As for `CC(C)(CNC(=O)C1(C(F)(F)F)CCC1)CN(C1=NS(=O)(=O)c2cc(F)ccc21)c1ccccc1`, the IC50 in series [1] is 320 nM; in series [4] it was 90 nM.

As for `CC(C)(CNC(=O)C1(C#N)CCOCC1)CN(C1=NS(=O)(=O)c2cc(F)ccc21)c1ccccc1`, the IC50 in series [1] stood at 560 nM; in series [4], 330 nM.

In series [4], `CC(CNC(=O)c1ccc(F)cc1)CN(C1=NS(=O)(=O)c2ccccc21)c1ccccc1` (configuration not stated) came in with an IC50 of 440 nM. In series [5], this compound gave a half-life of 22 min.

Turning to `CC(C)(CNC(=O)C1(C(=O)O)CC1)CN(C1=NS(=O)(=O)c2cc(F)ccc21)c1ccccc1`, the 50% inhibitory concentration (IC50) in series [1] and in series [4] was over 50000 nM in each case.

With `CC(C)(CNC(=O)c1cc2ccccc2o1)CN(C1=NS(=O)(=O)c2cc(F)ccc21)c1ccccc1`, the IC50 in series [1] and in series [4] was over 50000 nM throughout.

In the case of `CC(C)(CNC(=O)C1(C)CC1)CN(C1=NS(=O)(=O)c2cc(F)ccc21)c1ccccc1`, the figures for the IC50 in series [1] and in series [4] were 370 nM and 200 nM, respectively.

As to `CC(=O)NCC(C)(C)CN(C1=NS(=O)(=O)c2cc(F)ccc21)c1ccccc1`, the IC50 in series [1] and in series [4] was 1180 nM throughout.

As for `CC(C)(CNC(=O)C1(C#N)CC1)CN(C1=NS(=O)(=O)c2cc(F)ccc21)c1ccccc1`, the IC50 in series [1] turned out to be 540 nM; in series [4], 350 nM. This compound had an AUC in the series on Rattus norvegicus of 630 ng·kg·h/mg/mL. Besides, in series [2], the concentration in solution (solubility) was 304 µM (≈ 138 µg/mL). Besides, in series [3], the Cmax stood at 900 ng/mL.

`CC(C)(CNC(=O)C1(O)CC1)CN(C1=NS(=O)(=O)c2cc(F)ccc21)c1ccccc1`: the IC50 is 1350 nM in series [1] and 820 nM in series [4].

For the compound `CC(C)(CNC(=O)c1ccoc1)CN(C1=NS(=O)(=O)c2cc(F)ccc21)c1ccccc1`, the IC50 is 360 nM in series [1] and 150 nM in series [4].

In the case of `CC(C)(CNC(=O)C1COCCN1)CN(C1=NS(=O)(=O)c2cc(F)ccc21)c1ccccc1` (configuration not stated), the IC50 in series [1] turned out to be 2000 nM; in series [4], 1260 nM.

Take `CC(C)(CNC(=O)C1(O)CCC(F)(F)CC1)CN(C1=NS(=O)(=O)c2cc(F)ccc21)c1ccccc1`: the IC50 in series [1] came out at 630 nM; in series [4] it was 390 nM.

On to `COc1cnccc1C(=O)NCC(C)(C)CN(C1=NS(=O)(=O)c2cc(F)ccc21)c1ccccc1`, for which the IC50 in series [1] turned out to be 370 nM; in series [4] it was 200 nM.

(Values after ChEMBL document CHEMBL1287701, “Substituted N-{3-[(1,1-dioxido-1,2-benzothiazol-3-yl)(phenyl)amino]propyl}benzamide analogs as potent Kv1.3 ion channel blockers. Part 2” (Bioorg Med Chem Lett, 2010).)
